Activity calls are given as the source filed them.
Columns and labels:
[1] = target: DNA dC->dU-editing enzyme APOBEC-3A (Homo sapiens, UniProt P31941); test: Dose Response confirmation of small molecule APOBEC3A DNA Deaminase Inhibitors via a fluorescence-based single-stranded DNA deaminase assay. [Related pubchem assays (depositor defined):AID493011, AID493024]; assay type: functional
[2] = target: DNA dC->dU-editing enzyme APOBEC-3G (Homo sapiens, UniProt Q9HC16); assay type: functional;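 further: Dose-response counterscreen measuring inhibition of APOBEC3G DNA deaminase activity, run while confirming APOBEC3A inhibitors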
[3] = Counterscreen for IDE inhibitors: Luminescence-based cell-based high throughput dose response assay to identify compounds that are cytotoxic to HEK cells. [Related pubchem assays: 434962 (Primary screen (IDE inhibitors in singlicate)), 449730 (Counterscreen (Cytotoxicity in triplicate)), 435028 (Confirmation (IDE inhibitors in triplicate)) …; assay type: functional; settings: HEK293
Insulin-degrading enzyme = target: T1, Insulin-degrading enzyme (Homo sapiens, UniProt P14735); test: Dose Response: Fluorescence polarization-based cell-based high throughput dose response assay for inhibitors of insulin-degrading enzyme (IDE). [Related pubchem assays: 434962 (Primary screen (IDE inhibitors in singlicate)), 449730 (Counterscreen (Cytotoxicity in triplicate)), 435028 (Confirmation (IDE inhibitors in triplicate)), 434984 (Summary …; assay type: functional
T1 sequence (P14735 whole entry): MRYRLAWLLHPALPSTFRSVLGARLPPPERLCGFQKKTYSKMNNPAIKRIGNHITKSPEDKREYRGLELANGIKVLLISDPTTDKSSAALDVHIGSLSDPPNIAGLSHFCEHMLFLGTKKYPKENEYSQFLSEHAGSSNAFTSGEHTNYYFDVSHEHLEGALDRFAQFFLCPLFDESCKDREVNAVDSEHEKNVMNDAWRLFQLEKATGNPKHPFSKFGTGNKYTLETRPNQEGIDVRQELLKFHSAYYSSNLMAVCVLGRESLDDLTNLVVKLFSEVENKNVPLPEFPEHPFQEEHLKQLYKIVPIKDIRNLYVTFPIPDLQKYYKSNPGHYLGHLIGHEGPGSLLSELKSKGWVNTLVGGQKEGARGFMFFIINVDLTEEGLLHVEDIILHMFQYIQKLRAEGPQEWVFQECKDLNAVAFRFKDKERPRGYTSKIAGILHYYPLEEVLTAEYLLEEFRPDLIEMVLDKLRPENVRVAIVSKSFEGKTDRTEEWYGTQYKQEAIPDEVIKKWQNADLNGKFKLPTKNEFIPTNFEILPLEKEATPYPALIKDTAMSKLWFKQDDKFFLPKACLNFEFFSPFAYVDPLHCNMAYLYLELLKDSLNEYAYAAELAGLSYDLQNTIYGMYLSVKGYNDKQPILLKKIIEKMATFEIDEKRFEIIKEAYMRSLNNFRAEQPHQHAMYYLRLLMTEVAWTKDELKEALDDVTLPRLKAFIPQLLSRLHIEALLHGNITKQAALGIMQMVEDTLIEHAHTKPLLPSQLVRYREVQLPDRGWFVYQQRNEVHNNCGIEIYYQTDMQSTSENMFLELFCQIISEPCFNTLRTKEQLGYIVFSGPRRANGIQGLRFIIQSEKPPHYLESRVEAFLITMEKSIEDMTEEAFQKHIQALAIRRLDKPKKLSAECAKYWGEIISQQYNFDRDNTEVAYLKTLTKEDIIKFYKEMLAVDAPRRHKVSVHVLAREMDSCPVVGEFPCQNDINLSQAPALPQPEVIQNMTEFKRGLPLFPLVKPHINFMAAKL

[4] = HEK-293T cell viability reduction – luminescence, B-cell screen hits, cytotoxicity control for BCR NF-kB inhibitor project, dose response (AID 489021); assay type: functional, cell-based;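 further: HEK-293T cells carrying an NF-kB luciferase reporter; cells exposed to compound for about 14 hours before viability readout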
Protein Rev = target: T2, Protein Rev (Human immunodeficiency virus type 1 group M subtype B (isolate WMJ22)(HIV-1), UniProt P05866); test: inhibitors of Rev protein–RRE RNA complex – biochemical, protein-RNA interaction, dose response (AID 842); design: species or system Human immunodeficiency virus 1
T2 sequence (P05866 whole entry): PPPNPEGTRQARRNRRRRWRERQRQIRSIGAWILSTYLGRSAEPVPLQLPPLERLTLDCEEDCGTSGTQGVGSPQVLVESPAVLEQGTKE

Large T antigen = Large T antigen (Simian virus 40, UniProt P03070); assay type: functional, Betapolyomavirus macacae;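 further: Confirmatory-stage PubChem screen for compounds that inhibit SV40 T antigen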
[5] = target: Eukaryotic translation initiation factor 4E (Mus musculus, UniProt P63073); test: blockers of eIF4G binding by eIF4E – biochemical, TR-FRET, dose response (AID 855); assay type: functional;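 further: potency for disrupting eIF4E binding to eIF4GI seen as loss of FRET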
Coagulation factor XII = target: T3, Coagulation factor XII (Homo sapiens, UniProt P00748); test: activated coagulation factor XII inhibitor potency, concentration-effect curve, cell-free (AID 716); assay type: functional
T3 sequence (P00748 whole entry): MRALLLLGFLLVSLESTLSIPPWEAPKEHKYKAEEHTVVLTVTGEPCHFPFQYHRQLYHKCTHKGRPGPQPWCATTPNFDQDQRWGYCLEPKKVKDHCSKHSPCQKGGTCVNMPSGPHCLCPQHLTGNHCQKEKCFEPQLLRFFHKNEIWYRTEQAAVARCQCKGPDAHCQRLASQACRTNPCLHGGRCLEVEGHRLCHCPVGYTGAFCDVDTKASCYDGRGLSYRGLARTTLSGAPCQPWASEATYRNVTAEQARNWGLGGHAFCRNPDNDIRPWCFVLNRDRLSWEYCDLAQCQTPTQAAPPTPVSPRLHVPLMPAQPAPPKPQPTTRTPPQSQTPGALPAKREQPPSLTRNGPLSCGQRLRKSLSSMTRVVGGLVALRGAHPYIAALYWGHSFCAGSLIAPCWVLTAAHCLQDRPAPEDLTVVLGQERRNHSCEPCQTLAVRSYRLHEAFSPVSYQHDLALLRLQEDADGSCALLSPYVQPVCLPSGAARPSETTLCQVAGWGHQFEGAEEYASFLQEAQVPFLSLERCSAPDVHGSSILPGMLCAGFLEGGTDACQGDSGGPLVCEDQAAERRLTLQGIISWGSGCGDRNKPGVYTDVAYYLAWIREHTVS

Aminopeptidase N = target: T4, Aminopeptidase N (Plasmodium falciparum FcB1/Columbia, UniProt O96935); test: malaria alanyl aminopeptidase activity blockers – biochemical, fluorogenic H-Leu-NHMec substrate, 1536-well (AID 1445); design: species or system Plasmodium falciparum 3D7, 3D7
T4 sequence (O96935 whole entry): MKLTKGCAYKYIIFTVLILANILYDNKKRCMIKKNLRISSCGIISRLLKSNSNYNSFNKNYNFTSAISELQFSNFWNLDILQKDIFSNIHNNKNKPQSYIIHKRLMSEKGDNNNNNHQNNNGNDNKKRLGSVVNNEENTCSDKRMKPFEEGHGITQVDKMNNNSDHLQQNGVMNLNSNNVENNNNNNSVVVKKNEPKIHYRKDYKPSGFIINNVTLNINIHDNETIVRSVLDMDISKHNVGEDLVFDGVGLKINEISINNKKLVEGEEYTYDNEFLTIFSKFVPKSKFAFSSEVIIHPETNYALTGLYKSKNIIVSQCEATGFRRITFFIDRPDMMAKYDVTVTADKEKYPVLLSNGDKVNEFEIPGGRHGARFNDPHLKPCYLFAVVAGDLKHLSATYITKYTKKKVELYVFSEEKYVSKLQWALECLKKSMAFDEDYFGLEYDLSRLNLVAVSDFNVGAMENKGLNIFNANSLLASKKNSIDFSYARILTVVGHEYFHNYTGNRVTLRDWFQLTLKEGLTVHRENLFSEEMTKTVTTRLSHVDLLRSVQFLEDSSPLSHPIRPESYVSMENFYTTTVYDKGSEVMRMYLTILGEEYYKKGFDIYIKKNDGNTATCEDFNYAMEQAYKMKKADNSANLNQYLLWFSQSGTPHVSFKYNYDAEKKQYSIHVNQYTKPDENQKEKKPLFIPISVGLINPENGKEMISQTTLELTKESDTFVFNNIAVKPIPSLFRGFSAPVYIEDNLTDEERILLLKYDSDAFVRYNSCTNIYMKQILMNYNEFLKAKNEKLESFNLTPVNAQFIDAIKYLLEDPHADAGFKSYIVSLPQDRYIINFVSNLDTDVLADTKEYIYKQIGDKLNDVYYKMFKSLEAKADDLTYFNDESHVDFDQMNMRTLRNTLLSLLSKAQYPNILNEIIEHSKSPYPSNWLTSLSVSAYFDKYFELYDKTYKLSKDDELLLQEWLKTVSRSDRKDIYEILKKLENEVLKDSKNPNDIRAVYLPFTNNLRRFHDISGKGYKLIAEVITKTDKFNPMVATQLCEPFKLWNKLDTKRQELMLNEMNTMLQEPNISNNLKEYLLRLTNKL

HEK293 [6] = test: inhibition of NOD1-driven NF-kB reporter – cell-based, luminescence, uHTS, primary screen (AID 1578); assay type: functional; settings: Homo sapiens
HEK293 [7] = test: cells; assay type: functional, cell-based; settings: Homo sapiens
HEK293 [8] = test: cells; assay type: functional, cell-based; settings: Homo sapiens; remark: listed apart in the source
HEK293 [9] = test: NOD2 signaling inhibitors in MDP-stimulated cells, cell-based, uHTS, luminescence (AID 2001); assay type: functional; settings: Homo sapiens
Tumor necrosis factor = Tumor necrosis factor (Homo sapiens, UniProt P01375); test: analog potency on TNFa NF-kB signaling – cell-based, revised, SAR follow-up (AID 2337); assay type: functional
[10] = target: T5, Nucleotide-binding oligomerization domain-containing protein 1 (Homo sapiens, UniProt Q9Y239); test: blockers of NOD1 pathway activity – revised, SAR follow-up (AID 2333); assay type: functional
T5 sequence (Q9Y239 whole entry): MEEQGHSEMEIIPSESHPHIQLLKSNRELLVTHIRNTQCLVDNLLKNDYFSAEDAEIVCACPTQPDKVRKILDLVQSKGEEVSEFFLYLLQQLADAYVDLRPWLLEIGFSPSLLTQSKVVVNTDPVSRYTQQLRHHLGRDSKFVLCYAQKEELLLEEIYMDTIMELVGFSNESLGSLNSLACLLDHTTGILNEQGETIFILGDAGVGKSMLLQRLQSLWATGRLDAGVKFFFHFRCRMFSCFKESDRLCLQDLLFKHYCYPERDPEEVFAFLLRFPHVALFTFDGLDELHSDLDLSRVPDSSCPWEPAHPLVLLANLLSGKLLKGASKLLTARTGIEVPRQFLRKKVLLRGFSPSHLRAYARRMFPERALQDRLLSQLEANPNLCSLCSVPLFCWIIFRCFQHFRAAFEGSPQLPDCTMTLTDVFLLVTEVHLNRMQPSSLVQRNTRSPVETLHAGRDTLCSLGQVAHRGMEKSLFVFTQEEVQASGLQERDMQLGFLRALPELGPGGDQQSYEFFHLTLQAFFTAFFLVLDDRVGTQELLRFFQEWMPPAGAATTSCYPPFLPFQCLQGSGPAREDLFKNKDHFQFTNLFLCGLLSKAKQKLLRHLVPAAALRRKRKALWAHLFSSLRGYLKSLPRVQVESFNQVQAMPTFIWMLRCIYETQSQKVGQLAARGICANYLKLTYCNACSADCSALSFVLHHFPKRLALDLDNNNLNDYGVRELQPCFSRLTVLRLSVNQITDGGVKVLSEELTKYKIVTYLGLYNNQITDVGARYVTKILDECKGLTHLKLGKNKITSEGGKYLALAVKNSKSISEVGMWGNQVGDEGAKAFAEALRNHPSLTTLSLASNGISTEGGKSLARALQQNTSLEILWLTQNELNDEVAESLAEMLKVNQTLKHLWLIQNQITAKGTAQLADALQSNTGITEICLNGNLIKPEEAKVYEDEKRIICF

[11] = HEK-293T viability loss after treatment – luminescence, T-cell screen hits, cytotoxicity control for TCR NF-kB inhibitor project, dose response (AID 489026); assay type: functional, cell-based;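 further: cells exposed to compound about 14 hours before the viability readout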
HEK293 [12] = test: cells; settings: Homo sapiens
[13] = Luminescence Cell-Based Dose Retest to Confirm Inhibitors of Cancer Stem Cells. [Related pubchem assays (depositor defined):AID2717, AID2721]; assay type: functional; settings: Homo sapiens
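Wherever AC50 is given: cells exposed to compound for roughly 70 hours or longer before luminescence read.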

Sequence of DNA dC->dU-editing enzyme APOBEC-3G (Q9HC16 whole entry): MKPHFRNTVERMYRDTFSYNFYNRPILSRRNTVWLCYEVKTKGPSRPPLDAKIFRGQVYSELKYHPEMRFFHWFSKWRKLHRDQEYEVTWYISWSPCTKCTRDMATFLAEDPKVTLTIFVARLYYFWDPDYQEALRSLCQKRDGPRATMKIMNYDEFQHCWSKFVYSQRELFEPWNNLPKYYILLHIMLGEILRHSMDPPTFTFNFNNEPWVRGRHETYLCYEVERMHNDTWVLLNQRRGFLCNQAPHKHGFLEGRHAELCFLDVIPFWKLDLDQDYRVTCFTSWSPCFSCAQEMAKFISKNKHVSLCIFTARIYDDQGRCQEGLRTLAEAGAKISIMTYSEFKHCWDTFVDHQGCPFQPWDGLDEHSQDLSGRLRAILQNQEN
Sequence of Tumor necrosis factor (P01375 whole entry, the tested form may be a part): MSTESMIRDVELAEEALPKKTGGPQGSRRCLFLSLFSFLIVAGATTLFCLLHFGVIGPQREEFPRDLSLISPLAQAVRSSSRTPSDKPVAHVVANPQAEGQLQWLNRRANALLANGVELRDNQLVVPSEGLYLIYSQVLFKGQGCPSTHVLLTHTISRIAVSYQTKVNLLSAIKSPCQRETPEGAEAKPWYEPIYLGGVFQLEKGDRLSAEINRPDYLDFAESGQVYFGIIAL
Sequence of DNA dC->dU-editing enzyme APOBEC-3A (P31941 whole entry): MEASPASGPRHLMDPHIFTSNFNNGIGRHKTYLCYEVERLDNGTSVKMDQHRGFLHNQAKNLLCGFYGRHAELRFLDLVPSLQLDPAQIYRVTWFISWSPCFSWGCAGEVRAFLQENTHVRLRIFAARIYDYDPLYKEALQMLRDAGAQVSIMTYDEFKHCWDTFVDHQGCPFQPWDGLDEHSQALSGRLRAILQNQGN
Sequence of Eukaryotic translation initiation factor 4E (P63073 whole entry): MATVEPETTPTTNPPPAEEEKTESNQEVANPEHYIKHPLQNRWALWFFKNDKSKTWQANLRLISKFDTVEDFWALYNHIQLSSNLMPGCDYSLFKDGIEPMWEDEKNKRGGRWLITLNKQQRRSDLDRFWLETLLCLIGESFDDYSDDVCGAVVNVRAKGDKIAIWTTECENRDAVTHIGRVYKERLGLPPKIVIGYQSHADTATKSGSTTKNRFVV
Sequence of Large T antigen (P03070 whole entry): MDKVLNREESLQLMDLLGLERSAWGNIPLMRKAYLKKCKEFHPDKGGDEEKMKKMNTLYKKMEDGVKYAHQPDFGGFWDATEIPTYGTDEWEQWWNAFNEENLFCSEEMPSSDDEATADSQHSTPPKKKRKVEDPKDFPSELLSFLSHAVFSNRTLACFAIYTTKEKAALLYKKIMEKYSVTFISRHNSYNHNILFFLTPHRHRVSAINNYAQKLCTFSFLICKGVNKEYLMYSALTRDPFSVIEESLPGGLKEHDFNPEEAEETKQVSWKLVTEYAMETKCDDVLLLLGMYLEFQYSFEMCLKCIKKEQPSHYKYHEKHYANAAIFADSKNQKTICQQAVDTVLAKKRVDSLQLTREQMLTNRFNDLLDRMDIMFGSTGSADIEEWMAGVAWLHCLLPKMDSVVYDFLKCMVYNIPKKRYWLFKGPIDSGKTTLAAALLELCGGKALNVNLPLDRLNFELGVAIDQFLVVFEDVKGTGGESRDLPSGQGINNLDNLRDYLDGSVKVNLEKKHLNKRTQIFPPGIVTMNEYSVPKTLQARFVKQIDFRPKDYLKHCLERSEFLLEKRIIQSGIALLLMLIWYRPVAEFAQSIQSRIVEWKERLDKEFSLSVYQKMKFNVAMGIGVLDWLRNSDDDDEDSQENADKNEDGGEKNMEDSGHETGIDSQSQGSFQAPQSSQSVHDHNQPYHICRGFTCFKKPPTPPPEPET

With `COc1cc(C(N)=O)cc(Br)c1OC` the IC50 [1] was 9.8 µM (active) and the IC50 [2] was 12.2 µM (active).

In the case of `CCc1sc(C(=O)Nc2cccc(-n3cnnn3)c2)cc1C`, the IC50 [3] is reported as 20.7 µM (not active), the IC50 (Insulin-degrading enzyme) is reported as 17.3 µM (not active) and the IC50 [4] is reported as > 80 µM (inactive).

With `CCOc1cc(-c2ccc(N)c(OCC)c2)ccc1N` the IC50 (Protein Rev) was 2.47 µM (active) and the IC50 (Large T antigen) was 12.3 µM (active).

For `O=C(NCc1ccc2c(c1)OCO2)c1ccc2c(c1)OCCO2`, the IC50 [5] was 50 µM (inactive).

For `C=CCSc1nnc(Cc2cc(O)nc(O)n2)n1-c1cc(C)ccc1C`, the IC50 (Coagulation factor XII) was > 50 µM (inactive).

In the case of `COc1ccc(S(=O)(=O)N2CCC(C(=O)NCc3ccccc3)CC2)cc1OC`, the IC50 (Aminopeptidase N) is reported as 68.4 µM (active).

For `CC(=O)c1cccc(OCC(=O)N2CCN(c3ccc(C(F)(F)F)cn3)CC2)c1`, the IC50 [3] was 19.4 µM (not active) and the IC50 (Insulin-degrading enzyme) was 19.2 µM (not active).

For `O=S(=O)(c1ccc(SCc2cccc(Cl)c2)nc1)N1CCCC1`, the IC50 [3] was 27.1 µM (not active) and the IC50 (Insulin-degrading enzyme) was > 55.9 µM (not active).

For `CC1CCC(C(C)C)C(OCC(O)C[N+]2(C)CCCCC2)C1` (stereo unspecified), the IC50 [1] was 2.6 µM (active) and the IC50 [2] was 3.66 µM (active).

With `CC(=O)N1c2ccc(S(=O)(=O)N3CCC(C(=O)Nc4cccc(C)n4)CC3)cc2CC1C` (stereo unspecified) the EC50 (HEK293 [6]) was 2.79 µM (active), the IC50 (HEK293 [7]) was 8.99 µM (active) and the IC50 (HEK293 [8]) was > 20 µM (inactive). The IC50 (HEK293 [9]) was 12.4 µM (inactive), the IC50 (Tumor necrosis factor) was 6.02 µM (active) and the IC50 [10] was 4.8 µM (active). For the same compound, the IC50 [11] was > 80 µM (inactive) and the IC50 (HEK293 [12]) was > 20 µM (inactive).

In the case of `NC(=O)c1sc(-c2ccsc2)cc1NS(=O)(=O)c1ccc(C(F)(F)F)cc1`, the IC50 (Aminopeptidase N) is reported as 22.1 µM (active) and the AC50 [13] is reported as 11.7 µM (active).

With `CC(=O)c1cccc(NS(=O)(=O)c2c(C)noc2C)c1` the IC50 (Coagulation factor XII) was > 50 µM (inactive).

With `NC(=O)c1ccc(NC(=O)c2ccccc2S(=O)(=O)c2ccccc2[N+](=O)[O-])cc1` the IC50 (Aminopeptidase N) was 102 µM (active).

With `CC(C)(C)c1ccc(C(=O)ONC(=N)c2cccc([N+](=O)[O-])c2)cc1` the IC50 (Tumor necrosis factor) was > 20 µM (inactive) and the IC50 [10] was > 20 µM (inactive).

For `CN1CCN(C(=O)c2ccc3c(=O)n(Cc4ccc(Cl)cc4)c(=S)[nH]c3c2)CC1`, the IC50 (Coagulation factor XII) was > 50 µM (inactive).
